“And” between values parts separate entries of the source, which are not always exact repeats. Identical values can stand only once. Like-named read-outs stand apart in the source and are kept apart here.
Assays:
[1] = cited from earlier work
[2] = tested on: pancreatic target cells; assay: Cytotoxicity cell culture assay (resazurin to resofurin fluorescence photometry); format: cell-based
Experimental: (§1) PAN toxicology was evaluated by analyzing in vivo pharmacokinetics of its degradation products over 48 hours. Additionally, acute local tissue injury caused by the indicator within minutes as well as macroscopic intra-abdominal side effects and local histological of the device over 8 days were assessed. Finally, cytotoxicity of its degradation products on pancreatic target cells was analyzed.
Cytotoxicity by PAN was further evaluated in a cell culture assay. Metabolic activity of viable cells was evaluated by fluorescence photometry of metabolized resofurin from resazurin after incubation with increasing amount of BTB. PAN indicator hydrogels contain BTB at a concentration of almost 0.5 mg/ml. Thus BTB-solutions with concentrations of 0.5 mg/ml, 1 mg/ml, 1.5 mg/ml, and 5.5 mg/ml, respectively were tested. Cytotoxicity is defined as cell viability less than 70%.

[3] = Pharmacokinetics of BTB in drainage fluid and portal venous blood after abdominal application of PAN indicator hydrogel (HPLC-MS); format: in vivo, domestic pigs (Sus Scrofa Domestica); details: for concentration at 1 day / concentration at 2 day / concentration at 0 min / concentration at 1 min / concentration at 5 min / concentration at 30 min / concentration at 60 min / concentration at 120 min: pig, other: abdominal application at the pancreatic surgery field; for concentration at 5 min: Min 5, mean of animals; for concentration at 30 min: Min 30, mean of animals
Experimental: as §1
For toxicological evaluation of PAN indicator hydrogel pharmacokinetics studies were conducted measuring concentrations of degradation products of the device in body fluid components over time consequently to abdominal application in pancreatic surgery. Blood from portal vein and peritoneal fluid from intraoperative situs or postoperative drainages were sampled. Time points of sampling in relation to indicator application were: 0 min (baseline before indicator application), 1, 5, 30, 60, and 120 min, 1st and 2nd postoperative day. Due to its composition with water and degradable components starch microspheres, only further constituent bromothymol blue (BTB) needed to be evaluated. It should be evaluated if and how much BTB stays in the organism after application at the pancreatic surgery field, gets resorbed to portal venous circulation and passes liver metabolism to reach central venous circulation. Thus, samples of body were collected at the different body compartments over time as described above. Due to expected extremely small BTB-amounts to be measured the very sensitive detection method High Pressure Liquid Chromatography-Mass Spectrometry (HPLC-MS) was used.

[4] = drainage fluid (peritoneal fluid), pig drainage fluid, read-out: Drainage BTB-Concentration, Mean
[5] = portal venous blood, pig portal venous blood, read-out: Portal Venous Blood BTB-Concentration, Mean

Cc1c(C2(c3cc(C(C)C)c(O)c(Br)c3C)OS(=O)(=O)c3ccccc32)cc(C(C)C)c(O)c1Br [BTB, bromothymol blue]
pKa [1]: 7.0 | cytotoxicity (defined as cell viability less than 70%) ([2]; 5.5 mg/ml of BTB): slight toxicity | cytotoxicity (defined as cell viability less than 70%) ([2]; 0.5-1.5 mg/ml of BTB): No cytotoxicity | Drainage BTB-Concentration ([3]; pig drainage fluid, Day 1 (1st postoperative day), individual animals Tox 1-4): < 20 ng/mL and 32.1 ng/mL and 18.9 ng/mL and 14.4 ng/mL and 2.98 ng/mL | Drainage BTB-Concentration ([3]; pig drainage fluid, Day 2 (2nd postoperative day), individual animals Tox 1-4): no detectable amount and 0 ng/ml | Drainage BTB-Concentration ([3]; pig drainage fluid, Min 0 (baseline before indicator application), individual animals Tox 1-4): 0 ng/ml (3×) and 7.44 ng/ml | Drainage BTB-Concentration ([3]; pig drainage fluid, Min 1 after indicator application, individual animals Tox 1-4): 2060 ng/mL and 9220 ng/mL and 3600 ng/mL and 2010 ng/mL | Drainage BTB-Concentration ([3]; pig drainage fluid, Min 5, individual animals Tox 1-4): 7650 ng/mL and 389 ng/mL and 2560 ng/mL and 2070 ng/mL | Drainage BTB-Concentration ([3]; pig drainage fluid, Min 30, individual animals Tox 1-4): 3280 ng/mL and 10.7 ng/mL and 1220 ng/mL and 712 ng/mL | Drainage BTB-Concentration ([3]; pig drainage fluid, Min 60, individual animals Tox 1-4): 1140 ng/mL and 9.27 ng/mL and 1270 ng/mL and 224 ng/mL | Drainage BTB-Concentration ([3]; pig drainage fluid, Min 120, individual animals Tox 1-4): 619 ng/mL and 263 ng/mL and 631 ng/mL and 121 ng/mL | Portal Venous Blood BTB-Concentration ([3]; pig portal venous blood, Day 1, individual animals Tox 1-4): 0 ng/mL | Portal Venous Blood BTB-Concentration ([3]; pig portal venous blood, Day 2, individual animals Tox 1-4): 0 ng/mL | Portal Venous Blood BTB-Concentration ([3]; pig portal venous blood, Min 0 (baseline before indicator application), individual animals Tox 1-4): 0 ng/mL | Portal Venous Blood BTB-Concentration ([3]; pig portal venous blood, Min 1, individual animals Tox 1-4): 0 ng/mL | Portal Venous Blood BTB-Concentration ([3]; pig portal venous blood, Min 5, individual animals Tox 1-4): 0 ng/ml (3×) and 2.02 ng/ml | Portal Venous Blood BTB-Concentration ([3]; pig portal venous blood, Min 30, individual animals Tox 1-4): 0 ng/ml (3×) and 2.11 ng/ml | Portal Venous Blood BTB-Concentration ([3]; pig portal venous blood, Min 60, individual animals Tox 1-4): 0 ng/mL | Portal Venous Blood BTB-Concentration ([3]; pig portal venous blood, Min 120, individual animals Tox 1-4): 0 ng/mL | concentration at 1 day ([3]; drainage fluid (peritoneal fluid), pig drainage fluid, Day 1, mean of animals, read-out: Drainage BTB-Concentration, Mean): 17.1 ng/mL | concentration at 2 day ([3]; drainage fluid (peritoneal fluid), pig drainage fluid, Day 2 (2nd postoperative day), individual animals Tox 1-4, read-out: Drainage BTB-Concentration): 0 ng/mL | concentration at 2 day ([3]; drainage fluid (peritoneal fluid), pig drainage fluid, Day 2, mean of animals, read-out: Drainage BTB-Concentration, Mean): 0 ng/mL | concentration at 0 min ([3]; drainage fluid (peritoneal fluid), pig drainage fluid, Min 0 (baseline before indicator application), mean of animals, read-out: Drainage BTB-Concentration, Mean): 1.9 ng/mL | concentration at 1 min ([3]; drainage fluid (peritoneal fluid), pig drainage fluid, Min 1, mean of animals, read-out: Drainage BTB-Concentration, Mean): 4220 ng/mL | concentration at 5 min [3, 4]: 3170 ng/mL | concentration at 30 min [3, 4]: 1310 ng/mL | concentration at 60 min ([3]; drainage fluid (peritoneal fluid), pig drainage fluid, Min 60, mean of animals, read-out: Drainage BTB-Concentration, Mean): 661 ng/mL | concentration at 120 min ([3]; drainage fluid (peritoneal fluid), pig drainage fluid, Min 120, mean of animals, read-out: Drainage BTB-Concentration, Mean): 408 ng/mL | concentration at 1 day ([3]; portal venous blood, pig portal venous blood, Day 1, individual animals Tox 1-4, read-out: Portal Venous Blood BTB-Concentration): 0 ng/mL | concentration at 1 day ([3]; portal venous blood, pig portal venous blood, Day 1, mean of animals, read-out: Portal Venous Blood BTB-Concentration, Mean): 0 ng/mL | concentration at 2 day ([3]; portal venous blood, pig portal venous blood, Day 2, individual animals Tox 1-4, read-out: Portal Venous Blood BTB-Concentration): 0 ng/mL | concentration at 2 day ([3]; portal venous blood, pig portal venous blood, Day 2, mean of animals, read-out: Portal Venous Blood BTB-Concentration, Mean): 0 ng/mL | concentration at 0 min ([3]; portal venous blood, pig portal venous blood, Min 0 (baseline before indicator application), individual animals Tox 1-4, read-out: Portal Venous Blood BTB-Concentration): 0 ng/mL | concentration at 0 min ([3]; portal venous blood, pig portal venous blood, Min 0 (baseline before indicator application), mean of animals, read-out: Portal Venous Blood BTB-Concentration, Mean): 0 ng/mL | concentration at 1 min ([3]; portal venous blood, pig portal venous blood, Min 1, individual animals Tox 1-4, read-out: Portal Venous Blood BTB-Concentration): 0 ng/mL | concentration at 1 min ([3]; portal venous blood, pig portal venous blood, Min 1, mean of animals, read-out: Portal Venous Blood BTB-Concentration, Mean): 0 ng/mL | concentration at 5 min [3, 5]: 0.51 ng/mL | concentration at 30 min [3, 5]: 0.53 ng/mL | concentration at 60 min ([3]; portal venous blood, pig portal venous blood, Min 60, individual animals Tox 1-4, read-out: Portal Venous Blood BTB-Concentration): 0 ng/mL | concentration at 60 min ([3]; portal venous blood, pig portal venous blood, Min 60, mean of animals, read-out: Portal Venous Blood BTB-Concentration, Mean): 0 ng/mL | concentration at 120 min ([3]; portal venous blood, pig portal venous blood, Min 120, individual animals Tox 1-4, read-out: Portal Venous Blood BTB-Concentration): 0 ng/mL | concentration at 120 min ([3]; portal venous blood, pig portal venous blood, Min 120, mean of animals, read-out: Portal Venous Blood BTB-Concentration, Mean): 0 ng/mL | BTB in portal venous blood ([3]; pigs, 5 and 30 minutes after application, remaining pigs and timepoints no BTB detected): small amounts of BTB were found only in one pig
